Patent US11690854B2, “Methods of treating heavy menstrual bleeding” (priority 2018, dated 2023)
“Also recorded” adds a separate entry of the source. Marks after values point to notes of the source that are not given here.

Experiments:
[1] = Pharmacokinetic properties of ELAGOLIX in healthy subjects; type: in vivo, human; conditions: for AUC: plasma; for AUC / Cmax: steady state, mean
mice = experiment: 2-year carcinogenicity study in mice; type: in vivo; conditions: mouse; any dose
[2] = tested on: premenopausal women with endometriosis with associated pain; experiment: Phase 3 Study EM-I (and extension EM-III); type: in vivo, human; conditions: for Proportion of responders for Dyspareunia (Daily Endometriosis Pain Impact Scale) / Proportion of responders for dysmenorrhea (Daily Endometriosis Pain Impact Scale) / Proportion of responders for Non-Menstrual Pelvic Pain (Daily Endometriosis Pain Impact Scale): EM-I
Text: Each placebo-controlled study assessed the reduction in endometriosis-associated pain over 6 months of treatment. More than 75 percent of women who completed Study EM-I and EM-II enrolled in the extension studies for an additional 6 month treatment period. Subjects were followed for up to 12 months post-treatment. The co-primary efficacy endpoints were the proportion of responders for dysmenorrhea and pelvic pain not related to menses (also known as non-menstrual pelvic pain [NMPP]) at Month 3 compared to placebo. The primary analysis independently evaluated these endpoints using a daily diary that asked patients to assess their pain and its impact on their daily activities, over the previous 24 hours. […] Women were defined as responders if they experienced clinically meaningful reduction in dysmenorrhea and/or NMPP with no increased analgesic use for endometriosis associated pain. Dyspareunia was evaluated as a secondary endpoint using the Daily Endometriosis Pain Impact Scale. Endometrial biopsies were performed in subjects in Study EM-I and its extension at Month 6 and Month 12.

[3] = tested on: premenopausal women with endometriosis with associated pain; experiment: Phase 3 Studies EM-I and EM-II together, with extension studies; type: in vivo, human
Text: Each placebo-controlled study assessed the reduction in endometriosis-associated pain over 6 months of treatment. More than 75 percent of women who completed Study EM-I and EM-II enrolled in the extension studies for an additional 6 month treatment period. Subjects were followed for up to 12 months post-treatment. Women in these studies also provided a daily self-assessment of their endometriosis pain using the Numeric Rating Scale (NRS), on a scale ranging from 0 (no pain) to 10 (worst pain ever). […] The population age range was 18-49 years old. Women who completed six months of treatment and met eligibility criteria continued treatment in two blinded six-month extension studies, for a total treatment duration of up to 12 months. In the placebo-controlled and extension clinical studies, BMD was measured by DXA. Changes observed in BMD at other anatomical sites (femoral neck, total hip) were generally smaller than lumbar spine.

## COc1cccc(-c2c(C)n(Cc3c(F)cccc3C(F)(F)F)c(=O)n(C[C@H](NCCCC(=O)O)c3ccccc3)c2=O)c1F [Elagolix, 4-((R)-2-[5-(2-fluoro-3-methoxy-phenyl)-3-(2-fluoro-6-trifluoromethyl-benzyl)-4-methyl-2,6-dioxo-3,6-dihydro-2H-pyrimidin-1-yl]-1-phenyl-ethylamino)-butyric acid]
[1]; healthy subjects
  Tmax: 1.0 h
[1]; human, blood and plasma
  blood plasma ratio: 0.6
[1]; human, in vivo
  Major route of elimination: Hepatic metabolism
  Metabolism, minor pathways: glucuronosyltransferases (UGTs)
[1]; human, in vivo, oral, healthy subjects, read-out: Terminal phase elimination half-life (t½)
  half-life: 4 to 6 h
[1]; human, in vivo, listed as ELAGOLIX
  Metabolism, minor pathways: Minor pathways include: CYP2D6,; also recorded: CYP2C8, and uridine
[1]; human, oral, 150 mg QD, τ 24 hours, % CV 31
  AUC: 1290 ng·h/mL
[1]; human, oral, 200 mg BID, τ 12 hours, % CV 57
  AUC: 1720 ng·h/mL
[1]; major pathway
  Metabolism: CYP3A (major)
[1]; 150 mg QD, % CV 29
  Cmax: 574 ng/mL
[1]; 200 mg BID, % CV 68
  Cmax: 774 ng/mL
mice
  Tumors in 2-year carcinogenicity study: no increase in tumors
[2]; 150 mg QD, Month 3, n/N 74/187, placebo 31.9
  Proportion of responders for Dyspareunia (Daily Endometriosis Pain Impact Scale): 39.6%
[2]; 150 mg QD, Month 3, n/N 115/248, placebo 19.6
  Proportion of responders for dysmenorrhea (Daily Endometriosis Pain Impact Scale): 46.4*** %
[2]; 150 mg QD, Month 3, n/N 125/248, placebo 36.5
  Proportion of responders for Non-Menstrual Pelvic Pain (Daily Endometriosis Pain Impact Scale): 50.4*** %
[2]; 150 mg QD, Month 6, n/N 74/187, placebo 33.3
  Proportion of responders for Dyspareunia (Daily Endometriosis Pain Impact Scale): 39.6%
[2]; 150 mg QD, Month 6, n/N 104/247, placebo 23.1
  Proportion of responders for dysmenorrhea (Daily Endometriosis Pain Impact Scale): 42.1*** %
[2]; 150 mg QD, Month 6, n/N 113/247, placebo 34.9
  Proportion of responders for Non-Menstrual Pelvic Pain (Daily Endometriosis Pain Impact Scale): 45.7** %
[2]; 200 mg BID, Month 3, n/N 81/172, placebo 31.9
  Proportion of responders for Dyspareunia (Daily Endometriosis Pain Impact Scale): 47.1*** %
[2]; 200 mg BID, Month 3, n/N 133/244, placebo 36.5
  Proportion of responders for Non-Menstrual Pelvic Pain (Daily Endometriosis Pain Impact Scale): 54.5*** %
[2]; 200 mg BID, Month 3, n/N 185/244, placebo 19.6
  Proportion of responders for dysmenorrhea (Daily Endometriosis Pain Impact Scale): 75.8*** %
[2]; 200 mg BID, Month 6, n/N 81/161, placebo 33.3
  Proportion of responders for Dyspareunia (Daily Endometriosis Pain Impact Scale): 50.3*** %
[2]; 200 mg BID, Month 6, n/N 151/243, placebo 34.9
  Proportion of responders for Non-Menstrual Pelvic Pain (Daily Endometriosis Pain Impact Scale): 62.1*** %
[2]; 200 mg BID, Month 6, n/N 183/243, placebo 23.1
  Proportion of responders for dysmenorrhea (Daily Endometriosis Pain Impact Scale): 75.3*** %
[2]; Study EM-I and its extension, Month 6 and Month 12
  Endometrial biopsy findings: no abnormal biopsy findings post-baseline
[3]; 150 mg Once Daily (N = 475)
  Completed Suicide, %: (0.2) %
  Suicidal ideation, %: (0.2) %
[3]; 150 mg Once Daily (N = 475), placebo 2.3
  Depressed Mood, depression, depressive symptoms and or tearfulness, %: (2.7) %
[3]; 150 mg Once Daily (N = 475), placebo 3.4
  Mood altered, mood swings, %: (5.7) %
[3]; 150 mg Once Daily, Month 3, baseline 2.6, placebo 2.6 to 2.4
  Mean Intensity score (1 = spotting to 4 = heavy): 2.2
[3]; 150 mg Once Daily, Month 3, baseline 5.3, placebo 5.4 to 4.6
  Mean bleeding/spotting days in prior 28 days: 2.8 days
[3]; 150 mg QD
  Discontinuations due to hot flush: 0.8%
  Discontinuations due to nausea: 0.8%
[3]; 150 mg QD and 200 mg BID, Month 3 and Month 6
  Numeric Rating Scale (NRS) endometriosis pain scores: highly statistically (p<0.001) significant reduction in NRS scores compared to placebo
[3]; 150 mg QD, N = 475, placebo 3
  Percentage of patients with adverse reaction: Anxiety: 3%
  Percentage of patients with adverse reaction: Arthralgia: 3%
  Percentage of patients with adverse reaction: Insomnia: 6%
[3]; 150 mg QD, N = 475, placebo 4
  Percentage of patients with adverse reaction: Nasopharyngitis: 6%
  Percentage of patients with adverse reaction: Sinusitis: 5%
[3]; 150 mg QD, N = 475, placebo 5
  Percentage of patients with adverse reaction: Upper Respiratory Tract Infection: 6%
[3]; 150 mg QD, N = 475, placebo 9
  Percentage of patients with adverse reaction: Hot Flush: 23%
[3]; 150 mg QD, N = 475, placebo 12
  Percentage of patients with adverse reaction: Headache: 17%
[3]; 150 mg QD, N = 475, placebo 13
  Percentage of patients with adverse reaction: Nausea: 11%
[3]; 150 mg QD, N = 475, placebo <1
  Percentage of patients with adverse reaction: Amenorrhoea: 4%
[3]; 150 mg QD, 6-month treatment
  Mean increase from pretreatment baseline in HDL-C: 2.24 mg/dL
  Mean increase from pretreatment baseline in LDL-C: 5.25 mg/dL
  Mean increase from pretreatment baseline in triglycerides: 0.42 mg/dL
